Measurements from patent US12448383B2, “Compounds and methods for treatment of viral infections” (priority 2022, dated 2025).

Tests used:
[1] = system: Respiratory syncytial virus recombinant with luciferase (RSV-Luc5) in Normal Human Bronchial Epithelial (NHBE) cells; assay: microbe, parasite or virus in culture; assay type: cell-based; conditions: read-out: EC50 RSVFluc-NHBE 384 V2
[2] = CC50 MT4 cytotoxicity (Cell-Titer Glo); assay type: cell-based; conditions: human
How it was run: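 CC50 values are the concentrations cutting viability by 50%, fitted by non-linear regression against untreated (100%) and 2 μM puromycin (0%) controls. Cell-Titer Glo luminescence measured after 4-5 days at 37° C exposure of uninfected MT-4 and HEp-2 cells to 3-fold dilutions spanning 15 nM to 100,000 nM.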

[3] = system: Respiratory syncytial virus recombinant with luciferase (RSV-Luc5) in HEp-2 cells; assay: microbe, parasite or virus in culture; assay type: cell-based; conditions: human respiratory syncytial virus, HEp-2, read-out: EC50 RSVFluc-Hep2 384 V2
[4] = system: SARS Coronavirus 2 recombinant with NanoLuc (SARS-CoV2-NLuc) in A549-hACE2 cells; assay: microbe, parasite or virus in culture; assay type: cell-based; conditions: A549; read-out: EC50 SARS CoV2 NanoLuc A549 384
[5] = GI S9 stability - no PMSF; assay type: in vitro ADME; set-up: GIS9-HUMAN-NoPMSF T1/2: unit: min; conditions: human intestinal S9, PMSF-free; for half-life at 2 µM: pH 7.4, read-out: GIS9-HUMAN-NoPMSF T1/2
How it was run: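 Stability was assessed by Q-Exactive LC-MS peak area ratios against internal standard, tracking loss of parent and appearance of nucleoside metabolite Reference Compound A. Incubations used 2 μM compound in 1 mg/mL intestinal S9 without PMSF (PBS, pH 7.4), with six samples taken over 120 min.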

Plasma stability = assay type: in vitro ADME; set-up: unit not given here; conditions: 37° C., 2 μM substrate
How it was run: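 LC-MS (Q-Exactive, 5 ppm tolerance, 0.1% formic acid water/acetonitrile gradient) quantified compound in quenched aliquots. Aliquots were taken at 0.05, 0.5, 1, 2, 3 and 4 hr and quenched with internal-standard solution, and supernatants were diluted with water after centrifugation.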

[6] = system: Caco-2 cells (clone C2BBe1); assay: CACO-2 permeability; assay type: in vitro ADME; set-up: unit not given here; conditions: for DM Caco2 A to B: apical to basolateral, donor pH 6.5, receiver pH 7.4; for DM Caco2 B to A: basolateral to apical
How it was run: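 A-to-B and B-to-A flux measured by LC-MS/MS from receiver samples taken at 1 and 2 h, with donor sampled at 0 and 2 h and recovery checked. Buffers: pH 6.5 HBSS with 200 μM BNPP on the donor side, pH 7.4 with BSA on the receiver side. Monolayers were 21-day cultures, TEER-verified, in duplicate wells.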

SMILES	EC50 [1] [µM]	CC50 [2] [µM]	logD (physchem)	EC50 [3] [µM]	EC50 [4] [µM]	half-life at 2 µM [5] [min]	STA Human Plasma 37 (Plasma stability)	DM Caco2 A to B [6]	DM Caco2 B to A [6]	GIS9-HUMAN-NoPMSF T1/2 [5]
N#C[C@@]1(c2ccc3c(N)ncnn23)O[C@H](COC(=O)OCOP(=O)(O)O)[C@@H](O)[C@H]1O [Compound 40, ((2R,3S,4R,5R)-5-(4-aminopyrrolo[2,1-f][1,2,4]triazin-7-yl)-5-cyano-3,4-dihydroaytetrahydrofuran-2-yl)methyl ((phosphonooxy)methyl) carbonate]	3.69	> 50	< 0.3	3.55						
COC(=O)Nc1ncnn2c([C@]3(C#N)O[C@H](COC(=O)OCC(C)(C)C)[C@@H](OC(=O)OC)[C@H]3OC(=O)OC)ccc12 [Compound 103, methyl (7-((2R,3R,4R,5R)-2-cyano-3,4-bis((methoxycarbonyl)oxy)-5-((((neopentyloxy)carbonyl)oxy)methyl)tetrahydrofuran-2-yl)pyrrolo[2,1-f][1,2,4]triazin-4-yl)carbamate]	17.7	> 50	3.2	20.7	> 50					
COC1O[C@H]2[C@@H](O1)[C@](C#N)(c1ccc3c(N)ncnn13)O[C@@H]2COC(=O)OC(C)C (stereo partly drawn) [Compound 107, ((3aR,4R,6R,6aR)-6-(4-aminopyrrolo[2,1-f][1,2,4]triazin-7-yl)-6-cyano-2-methoxytetrahydrofuro[3,4-d][1,3]dioxol-4-yl)methyl isopropyl carbonate]	> 50	> 50	2.5	> 50	> 50					
CC(C)(C)OP(=O)(OCOC(=O)OC[C@H]1O[C@@](C#N)(c2ccc3c(N)ncnn23)[C@H](O)[C@@H]1O)OC(C)(C)C [Compound 110, ((2R,3S,4R,5R)-5-(4-aminopyrrolo[2,1-f][1,2,4]triazin-7-yl)-5-cyano-3,4-dihydroxytetrahydrofuran-2-yl)methyl (((di-tert-butoxyphosphoryl)oxy)methyl) carbonate]	20.4	> 50	1.7	10.8						
COc1ccc(CCOC(=O)OC[C@H]2O[C@@](C#N)(c3ccc4c(N)ncnn34)[C@H](O)[C@@H]2O)cc1 [Compound 112, ((2R,3S,4R,5R)-5-(4-aminopyrrolo[2,1-f][1,2,4]triazin-7-yl)-5-cyano-3,4-dihydroxytetrahydrofuran-2-yl)methyl (4-methoxyphenethyl) carbonate]	0.454	> 50	1.8	0.181	2.11	1.77	28.8	2.53	15.81	
CC1(COC(=O)OC[C@H]2O[C@@](C#N)(c3ccc4c(N)ncnn34)[C@H](O)[C@@H]2O)CC1 [Compound 114, ((2R,3S,4R,5R)-5-(4-aminopyrrolo[2,1-f][1,2,4]triazin-7-yl)-5-cyano-3,4-dihydroxytetrahydrofuran-2-yl)methyl ((1-methylcyclopropyl)methyl) carbonate]	0.966	> 50	1.5	0.123	1.12	1.21	26.8	2.07	11.26	
N#C[C@@]1(c2ccc3c(N)ncnn23)O[C@H](COC(=O)OCC2CC(F)(F)C2)[C@@H](O)[C@H]1O [Compound 115, ((2R,3S,4R,5R)-5-(4-aminopyrrolo[2,1-f][1,2,4]triazin-7-yl)-5-cyano-3,4-dihydroxytetrahydrofuran-2-yl)methyl ((3,3-difluorocyclobutyl)methyl) carbonate]	0.99	> 50	1.4	0.228	1.76	0.581	41.2	0.91	8.32	
CC1(COC(=O)OC[C@H]2O[C@@](C#N)(c3ccc4c(N)ncnn34)[C@H](O)[C@@H]2O)CCC1 [Compound 122, ((2R,3S,4R,5R)-5-(4-aminopyrrolo[2,1-f][1,2,4]triazin-7-yl)-5-cyano-3,4-dihydroxytetrahydrofuran-2-yl)methyl ((1-methylcyclobutyl)methyl) carbonate]	1.04	> 50	1.9	0.29	0.707	0.637	34.1			
N#C[C@@]1(c2ccc3c(N)ncnn23)O[C@H](COC(=O)OCC2CC2)[C@@H](O)[C@H]1O [Compound 125, ((2R,3S,4R,5R)-5-(4-aminopyrrolo[2,1-f][1,2,4]triazin-7-yl)-5-cyano-3,4-dihydroxytetrahydrofuran-2-yl)methyl (cyclopropylmethyl) carbonate]	0.645	> 50	1.1	0.22	1.79	0.582	12.2			
N#C[C@@]1(c2ccc3c(N)ncnn23)O[C@H](COC(=O)OCCCCCC(=O)O)[C@@H](O)[C@H]1O [Compound 140, 6-(((((2R,3S,4R,5R)-5-(4-aminopyrrolo[2,1-f][1,2,4]triazin-7-yl)-5-cyano-3,4-dihydroxytetrahydrofuran-2-yl)methoxy)carbonyl)oxy)hexanoic acid]	> 50	> 50	< 0.3		> 50	783	1322.1	0.04	0.12	
N#C[C@@]1(c2ccc3c(N)ncnn23)O[C@H](COC(=O)OCCCC(=O)O)[C@@H](O)[C@H]1O [Compound 141, 4-(((((2R,3S,4R,5R)-5-(4-aminopyrrolo[2,1-f][1,2,4]triazin-7-yl)-5-cyano-3,4-dihydroxytetrahydrofuran-2-yl)methoxy)carbonyl)oxy)butanoic acid]	> 50	> 50	< 0.3		> 50		902.37	0.05	0.08	789
N#C[C@@]1(c2ccc3c(N)ncnn23)O[C@H](COC(=O)OCCCCC(=O)O)[C@@H](O)[C@H]1O [Compound 142, 5-(((((2R,3S,4R,5R)-5-(4-aminopyrrolo[2,1-f][1,2,4]triazin-7-yl)-5-cyano-3,4-dihydroxytetrahydrofuran-2-yl)methoxy)carbonyl)oxy)pentanoic acid]	> 50	> 50	< 0.3		> 50		1584	0.02	0.07	789
CC(C)OC(=O)[C@H](CCOC(=O)OC[C@H]1O[C@@](C#N)(c2ccc3c(N)ncnn23)[C@H](O)[C@@H]1O)N(C)C [Compound 146, isopropyl (2S)-4-[[(2R,3S,4R,5R)-5-(4-aminopyrrolo[2,1-f][1,2,4]triazin-7-yl)-5-cyano-3,4-dihydroxy-tetrahydrofuran-2-yl]methoxycarbonyloxy]-2-(dimethylamino)butanoate]	8.25	> 50	1.5		7.68	174	497.93	0.06	7.15	
